pIC50: −log10 of the molar value. “Also recorded” adds a separate entry of the source.
Legend:
PKM2 = assay: EGF-induced nuclear translocation of PKM2 (cell fractionation, immunoblotting, immunofluorescence); assay type: cell-based, human; conditions: U87/EGFR (and U251) cells; 30 min pretreatment before EGF 100 ng/mL; LY290042 30 μM, SU6656 4 μM, SP600125 25 μM, U0126 20 μM, AG1478 1 μM, cycloheximide 100 μg/mL
Description: Immunoblotting analyses (b, b) were performed with the indicated antibodies. Nuclear PCNA and cytoplasmic tubulin were used as controls. a: The indicated cells were immunostained with an anti-PKM2 antibody.
Immunoblotting and immunoprecipitation analyses were performed with the indicated antibodies. a: Nuclear fractions were prepared from U87/EGFR cells pretreated with LY290042 (30 μM), SU6656 (4 μM), SP600125 (25 μM), and U0126 (20 μM) for 30 min before EGF (100 ng/mL) for 6 h. Nuclear PCNA and cytoplasmic tubulin were used as controls. b: U87/EGFR cells were pretreated with or without U0126 (20 μM) for 30 min before EGF (100 ng/mL) for 6 h. Immunofluorescence analyses were performed with the indicated antibodies. Nuclei were stained with Hoechst 33342 (blue). c: U251 cells were stably transfected with a vector with or without expressing FLAG-ERK2 K52R (left panel) or transiently transfected with vectors expressing MEK1 Q56P and indicated FLAG-tagged ERK2 proteins (right panel). The cells were treated with or without EGF (100 ng/mL) for 6 h, and the total cell lysates and nuclear fractions were prepared. d: FLAG-PKM2 or FLAG-PKM1 was immunoprecipitated with an anti-FLAG antibody from U87/EGFR cells treated with or without EGF (100 ng/mL) for 30 min. e: Bacterially-purified GST-ERK2 immobilized on glutathione agarose beads was mixed with or without purified His-PKM2. GST pull-down analyses were performed. Ten percent of total His-PKM2 was used as an input. f: U87/EGFR cells transfected with vectors expressing the indicated FLAG-tagged ERK proteins were treated with or without EGF (100 ng/mL) for 30 min. g: U87/EGFR cells expressing the indicated FLAG-PKM2 proteins were treated with or without EGF (100 ng/mL) for 30 min.
(§1) Immunofluorescence analyses of endogenous PKM2 or transiently expressed FLAG-PKM1 were performed with the indicated antibodies. […] Immunoblotting analyses were performed with the indicated antibodies. Nuclear PCNA was used as controls for immunoblotting analyses. c: An equal volume of cytosolic and nuclear fractions were prepared from U87/EGFR cells treated with or without EGF (100 ng/mL) for 6 h. Ten microliters of protein from cytosolic and nuclear fractions were used for immunoblotting analyses with the indicated antibodies. d: Nuclear fractions were prepared from U251 cells pretreated with LY290042 (30 μM), SU6656 (4 μM), SP600125 (25 μM), and U0126 (20 μM) for 30 min before EGF (100 ng/mL) for 6 h. Immunoblotting analyses were performed with the indicated antibodies. Nuclear PCNA and cytoplasmic tubulin were used as controls. e: U87/EGFR cells were pretreated with LY290042 (30 μM), SU6656 (4 μM), SP600125 (25 μM), and U0126 (20 μM) for 30 min before EGF (100 ng/mL) for 6 h. Immunoblotting analyses were performed with the indicated antibodies.
Cytosolic and nuclear fractions were prepared. Immunoblotting analyses were performed with the indicated antibodies. b: U87/EGFR cells with depleted endogenous PKM2 and reconstituted expression of RNAi-resistant WT rPKM2 or rPKM2 S37A were treated with or without EGF (100 ng/mL) for 6 h. Total cell lysates (left panel) and nuclear fractions (right panel) were prepared.

ERK1/2 = assay: EGF-induced ERK1/2 phosphorylation, immunoblotting; assay type: cell-based, human; conditions: U87/EGFR cells; AG1478 1 μM or U0126 20 μM 30 min before EGF 6 h
Description: as §1
Extraction of proteins with a modified buffer from cultured cells was followed by immunoprecipitation and immunoblotting with corresponding antibodies, as described previously (Lu et al., 1998).

PKM2 expression = assay: EGF-induced PKM2 upregulation, immunoblotting; assay type: cell-based, human; conditions: U87/EGFR cells; pretreatment before EGF 100 ng/mL 12 h; AG1478 1 μM, cycloheximide 200 μg/mL, Bis-I 2 μM, Go6976 2 μM, NF-κB activation inhibitor II 7 μM, AKT inhibitor 10 μM, TBB 50 μM, U73122 2 μM
Description: FIG. 56: EGFR activation results in upregulation of PKM2 expression. A-D: Immunoblotting analyses were performed with or without the indicated antibodies. A: The indicated cell lines were treated with EGF (100 ng/mL) for 12 h. B: U87 cells were stably transfected with plasmids expressing EGFR or EGFRvIII. […] D: U87/EGFR cells were pretreated with or without cycloheximide (CHX) (200 μg/mL) for 30 min before EGF (100 ng/mL) treatment for 12 h. […] The relative mRNA levels of PKM2 and PKM1 were normalized to the levels of untreated cells and β-actin mRNA. Data represent the mean±SD of three independent experiments.
FIG. 57: EGF increases PKM2 expression in a PKC- and NF-κB-dependent manner. A-D, H: Immunoblotting analyses were performed with the indicated antibodies. […] ChIP assay was performed with an anti-RelA antibody for immunoprecipitation, followed by PCR with PKM promoter-specific primers. F: An oligonucleotide containing the putative WT or mutated NF-κB binding sequence was labeled using [γ-^32P] ATP and T4 polynucleotide kinase. […] Samples were subjected to 5% polyacrylamide gel electrophoresis, and the dried gel was exposed to x-ray film. […] The relative levels of luciferase activity were normalized to the levels of untreated cells and to the levels of luciferase activity of the Renilla control plasmid. Data represent the mean±standard deviation of three independent experiments.
FIG. 58: PKCε downstream from PLCγ1, rather than TAK1, activates IKKβ and subsequently increases PKM2 expression. […] B: U87/EGFR cells were treated with TNFα (10 ng/mL) for the indicated time. C: U87/EGFR cells were treated with or without EGF (100 ng/mL) or TNFα (10 ng/mL) for 4 h. […] HIF1α was immunodepleted from the cell lysates by incubation with an anti-HIF1α antibody, which was followed by a ChIP assay with an anti-FLAG antibody for immunoprecipitation of FLAG-RelA and PCR analysis with PKM promoter-specific primers. […] F: 293T cells were transiently transfected with constitutively active (+) or kinase-dead (−) PKC mutants. […] H, I: 293T cells were transiently transfected with the indicated plasmids.

IKKβ = biological target: T1, IKKβ (Homo sapiens, UniProt O14920); conditions: small molecules IKKβ inhibitors; values from the cited references; read-out: IC50 (half maximal inhibitory concentration); cited from earlier work
T1 sequence (O14920 1-756): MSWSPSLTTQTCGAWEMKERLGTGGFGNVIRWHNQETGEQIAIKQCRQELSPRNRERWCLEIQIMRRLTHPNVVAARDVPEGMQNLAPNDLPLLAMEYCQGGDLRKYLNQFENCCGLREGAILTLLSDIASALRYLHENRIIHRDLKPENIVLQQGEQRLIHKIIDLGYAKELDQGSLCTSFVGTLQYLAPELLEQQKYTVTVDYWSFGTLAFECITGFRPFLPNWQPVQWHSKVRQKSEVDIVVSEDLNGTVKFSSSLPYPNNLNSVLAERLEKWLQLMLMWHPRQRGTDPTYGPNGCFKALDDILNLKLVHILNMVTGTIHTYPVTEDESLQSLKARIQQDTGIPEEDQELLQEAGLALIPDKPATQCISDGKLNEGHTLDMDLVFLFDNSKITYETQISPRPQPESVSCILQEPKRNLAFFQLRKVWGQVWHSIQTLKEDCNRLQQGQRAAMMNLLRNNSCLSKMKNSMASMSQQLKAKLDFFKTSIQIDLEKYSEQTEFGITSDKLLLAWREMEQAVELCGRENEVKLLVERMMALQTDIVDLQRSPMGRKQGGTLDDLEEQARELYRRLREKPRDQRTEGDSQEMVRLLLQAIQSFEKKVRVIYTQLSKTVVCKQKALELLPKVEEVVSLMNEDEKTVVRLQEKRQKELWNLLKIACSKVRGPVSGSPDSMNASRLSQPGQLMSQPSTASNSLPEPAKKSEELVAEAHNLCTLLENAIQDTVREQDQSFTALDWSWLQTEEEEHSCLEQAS

Structure (SMILES) | EGF-induced nuclear accumulation/translocation of PKM2 (PKM2) | EGF-induced phosphorylation of ERK1/2 (ERK1/2) | EGF-induced PKM2 upregulation/expression (PKM2 expression) | pIC50 (IKKβ)
COc1cc2ncnc(Nc3cccc(Cl)c3)c2cc1OC [AG1478] | abrogated | blocked | blocked; also recorded: abrogated | –
O=C(Nc1cc(C(F)(F)F)cc(C(F)(F)F)c1)c1cc(Cl)ccc1O [IMD-0354] | – | – | – | 5.52 to 6.55
O=C(N/N=C/c1ccc([N+](=O)[O-])cc1)c1ccc2ccccc2c1 [LASSBio-1524] | – | – | – | 4.70
Cc1cc(N)ccc1N=Nc1ccc(S(=O)(=O)CCOS(=O)(=O)O)cc1 [NSC 676914] | – | – | – | 4.77
C[C@]1(CO)CN(c2cc(C(=O)Nc3ccc4c(c3)-c3c(c(C(N)=O)nn3-c3ccc(F)cc3)CC4)c(Cl)cn2)C[C@@]1(C)CO [PF-184] | – | – | – | 7.43
O=C(Nc1cc(Cl)cc2c1[nH]c1cnccc12)c1cccnc1 [PS1145] | – | – | – | 7.06
C[C@@H]1C[C@@H]([C@H](O)CC2CC(=O)NC(=O)C2)C(=O)[C@@H](C)C1 [cycloheximide] | did not inhibit | – | inhibited | –
